In one assay the test system is HS578T cells. As to the kind of experiment: BrdU proliferation ELISA, HS578T cells. Format: cell-based, human. The conditions noted are these: peptide 2 µM, 7 days in 2% FBS then 2 days in 10% FBS, n = 6. The protocol: (§1) BrdU incorporation into proliferating cells was analyzed by a cell proliferation ELISA BrdU kit (colorimetric, Roche) according to the manufacturer's instructions.
(In general: ELISA stands for enzyme-linked immunosorbent assay.)

The next assay relates to PC-3 cells. As to the kind of experiment: BrdU proliferation ELISA, PC-3 cells. Format: cell-based, human. The conditions noted are these: PC-3, peptide 2 µM, 7 days in 2% FBS then 2 days in 10% FBS; n = 6. The protocol: as §1
Another assay relates to MDA-MB-231 tumor. The note with it: cited from earlier work.

In the case of “Mesd C-terminal region peptide: generic wording; in Figure 7B it is hMesd (160–197); in cited work (ref 13) the peptide is not specified (KGGGSKEKNKTKQDKGKKKKEGDLKSRSSKEENRAGNK)”, the BrdU incorporation entry in the assay with HS578T cells and in the assay with PC-3 cells was “decreased BrdU incorporation” throughout. For the same substance, the MDA-MB-231 tumor growth entry with MDA-MB-231 tumor was “suppressed”.

The values are drawn from publication PMC3585277, “The C-Terminal Region Mesd Peptide Mimics Full-Length Mesd and Acts as an Inhibitor of Wnt/β-Catenin Signaling in Cancer Cells” (PLoS ONE, 2013).
